{"source": "patent US20120178625A1", "about": "“METHOD FOR REDUCING PISTILLATE FLOWER ABORTION IN PLANTS” (BASF SE, priority 2009, published 2012)", "system": "walnut (Juglans regia cv. Serr)", "test": "Control of PFA (pistillate flower abortion) field trial in a walnut orchard, Graneros, Chile (2008/2009)", "type": "in vivo", "conditions": "water 1500 l/ha", "description": "In the terms of the present invention, “reducing pistillate flower abortion in plants” refers to a reduction in the level of PFA. This reduction can be measured by determining a) the fruit set (%), b) the number of growing fruits (%) and/or c) the remaining fruits at harvest (%) (fruit yield). The higher the percentage of fruit set, growing fruits and/or remaining fruits at harvest, the lower the respective pistillate flower abortion. The trial was run in a walnut orchard (Juglans regia cv. Serr) located in Graneros, Chile in the year 2008. Trial design was completely randomized with 3 replicates per treatment. Each replicate had identified branches completing 100 female flowers. Remaining fruit were counted after fruit set and at harvest time. […] [table] […] As a consequence PFA was quite high, influencing adversely yields in orchard where no ethylene control was done.", "key": {"[1]": {"conditions": "Treatment No. 2: 0.5 l/ha, 2 applications (10% and 30% of pistillates flowering)"}, "[2]": {"conditions": "Treatment No. 5: 0.7 l/ha + 0.015% Break-Thru, 3 applications (10%, 30% and 50% of pistillates flowering)"}}, "data": [{"smiles": "COC(=O)N(OC)c1ccccc1COc1ccn(-c2ccc(Cl)cc2)n1", "note": "[Pyraclostrobin, pyraclostrobin]", "values": [{"measurement": "Fruit set (%) (Oct. 23, 2008)", "setting": "[1]", "value": 54.0, "unit": "%"}, {"measurement": "Increase (%) compared to UTC, fruit set", "setting": "[1]", "value": "+108%"}, {"measurement": "Increase (%) compared to UTC, remaining fruits at harvest", "setting": "[1]", "value": "+106%"}, {"measurement": "Increase (%) compared to UTC, small growing fruits", "setting": "[1]", "value": "+104%"}, {"measurement": "Remaining fruits at harvest (%) (Mar. 03, 2009)", "setting": "[1]", "value": 46.0, "unit": "%"}, {"measurement": "Small growing fruits (%) (Nov. 10, 2008)", "setting": "[1]", "value": 46.3, "unit": "%"}, {"measurement": "Increase (%) compared to UTC, fruit set", "setting": "[2]", "value": "+165%"}, {"measurement": "Increase (%) compared to UTC, remaining fruits at harvest", "setting": "[2]", "value": "+200%"}, {"measurement": "Increase (%) compared to UTC, small growing fruits", "setting": "[2]", "value": "+201%"}]}]}
